# Test results: the NIST ThermoML archive (doi:10.1021/je3009123)
# ± gives the expanded uncertainty stated by the source.
# Tests used:
# [1] = mn = molality of the nth substance listed, in mol/kg; details: 100 kPa, Liquid; for speed of sound: Linear variable-path acoustic interferometer; for mass density: Pycnometric method
# [2] = refractive index (Na D-line) (dimensionless); mn = molality of the nth substance listed, in mol/kg; details: 100 kPa, Liquid, Standard Abbe refractometry
smiles,measurement,setting,value
"CC1NC(=O)C(C)NC1=O (stereo not given) [3,6-dimethyl-2,5-piperazinedione] + O",speed of sound,"[1]; 293.15 K, m1 = 0.05",1499.7 ± 1.8 m/s
same,mass density,"[1]; 293.15 K, m1 = 0.05",999.9 ± 0.38 kg/m3
same,speed of sound,"[1]; 298.15 K, m1 = 0.05",1509.5 ± 1.8 m/s
same,mass density,"[1]; 298.15 K, m1 = 0.05",998.82 ± 0.39 kg/m3
same,speed of sound,"[1]; 303.15 K, m1 = 0.05",1521.1 ± 1.8 m/s
same,mass density,"[1]; 303.15 K, m1 = 0.05",997.48 ± 0.4 kg/m3
same,speed of sound,"[1]; 308.15 K, m1 = 0.05",1527.9 ± 1.8 m/s
same,mass density,"[1]; 308.15 K, m1 = 0.05",996.18 ± 0.41 kg/m3
same,speed of sound,"[1]; 313.15 K, m1 = 0.05",1535.9 ± 1.8 m/s
same,mass density,"[1]; 313.15 K, m1 = 0.05",994.84 ± 0.43 kg/m3
same,refractive index,"[2]; 293.15 K, m1 = 0.05",1.3351 ± 0.0005
same,refractive index,"[2]; 298.15 K, m1 = 0.05",1.3344 ± 0.0005
same,refractive index,"[2]; 303.15 K, m1 = 0.05",1.3337 ± 0.0005
same,refractive index,"[2]; 308.15 K, m1 = 0.05",1.3331 ± 0.0005
same,refractive index,"[2]; 313.15 K, m1 = 0.05",1.3324 ± 0.0005
[Cl][Co][Cl] [cobalt chloride] + O,speed of sound,"[1]; 293.15 K, m1 = 0.1",1502.5 ± 1.8 m/s
same,mass density,"[1]; 293.15 K, m1 = 0.1",1014 ± 0.39 kg/m3
same,speed of sound,"[1]; 298.15 K, m1 = 0.1",1512 ± 1.8 m/s
same,mass density,"[1]; 298.15 K, m1 = 0.1",1013 ± 0.4 kg/m3
same,speed of sound,"[1]; 303.15 K, m1 = 0.1",1524 ± 1.8 m/s
same,mass density,"[1]; 303.15 K, m1 = 0.1",1011.84 ± 0.41 kg/m3
same,speed of sound,"[1]; 308.15 K, m1 = 0.1",1533.9 ± 1.8 m/s
same,mass density,"[1]; 308.15 K, m1 = 0.1",1010.16 ± 0.42 kg/m3
same,speed of sound,"[1]; 313.15 K, m1 = 0.1",1541.7 ± 1.8 m/s
same,mass density,"[1]; 313.15 K, m1 = 0.1",1007.89 ± 0.43 kg/m3
same,refractive index,"[2]; 293.15 K, m1 = 0.1",1.3373 ± 0.0005
same,refractive index,"[2]; 298.15 K, m1 = 0.1",1.3368 ± 0.0005
same,refractive index,"[2]; 303.15 K, m1 = 0.1",1.3361 ± 0.0005
same,refractive index,"[2]; 308.15 K, m1 = 0.1",1.3356 ± 0.0005
same,refractive index,"[2]; 313.15 K, m1 = 0.1",1.335 ± 0.0005
